Measurements as given in EPA's ToxValDB 9.5.
Values after ≈ are worked out from the molar mass of the structure shown. Values joined by “and” are separate entries in the source; they are usually repeats but may differ in a detail not shown here. Identical values can stand only once.

How the values were obtained:
Rattus norvegicus [1] = conditions: for LD50 / LC50: acute
Oryctolagus sp. [2] = assay: LD0; higher = less toxic; conditions: acute; dermal; New Zealand
Mus musculus [3] = conditions: acute; inhalation
Rattus norvegicus [4] = assay: LD0; higher = less toxic; conditions: acute; oral; gavage
Gallus sp. = conditions: repeat dose other; oral
Oryctolagus sp. [5] = conditions: New Zealand; for LD50: acute, dermal
Rattus norvegicus [6] = assay: LC10; higher = less toxic; conditions: acute; inhalation; Sprague-Dawley
Rattus norvegicus [7] = conditions: subchronic, oral, gavage, Fischer 344, Deaths + Body Weight Changes: decrease + Hematology: Hct increase, RBC increase, WBC increase, Hgb increase, Ret increase, Nucleated …
Rattus norvegicus [8] = conditions: M/F
Homo sapiens = conditions: clinical; duration: 60 minutes; inhalation; M/F; respiratory
Rattus norvegicus [9] = conditions: subchronic; duration: 13 weeks; inhalation; M/F; respiratory
Rattus norvegicus [10] = assay: FEL; higher = less toxic; conditions: chronic; oral; gavage; M/F; reduced survival
Neovison sp. = conditions: repeat dose other; oral; Mink
Peromyscus polionotus = conditions: oral
Phasianus colchicus = conditions: oral
Monkey [11] = conditions: chronic; oral; F; decreased antibody (IgG and IgM) response to sheep erythrocytes + Ocular exudate, inflamed and prominent Meibomian glands, distorted growth …
Monkey [12] = conditions: chronic; duration: 5 years; oral; capsule; Immune system: Toxicity
Canidae [13] = conditions: chronic; oral; diet; M/F; Dog Other; rbc and plasma cholinesterase inhibition, and testicular and uterine effects
Rattus norvegicus [14] = conditions: Hershberger; duration: 10 days; oral; gavage; Sprague-Dawley; inactive + Negative + Negative + neither + negative
Canidae [15] = conditions: chronic; duration: 1 years; oral; diet; Dog Other; Blood: Cholinesterase inhibition + Testis: Effects + Uterus: Effects
Rattus norvegicus [16] = assay: LD40; higher = less toxic; conditions: acute; oral; gavage; Sprague-Dawley
Mus musculus [17] = conditions: chronic; duration: 25 months; oral; diet; M/F; Swiss; Histopathology in lungs

Question: CC12C=CC(C1)C1C(=O)OC(=O)C12 (stereo not given) [1,2,3,6-Tetrahydromethyl-3,6-methanophthalic anhydride] was tested. Which LD50 (Rattus norvegicus [1]; dermal) did it give?
Answer: 4920 mg/kg and ≥ 3670 mg/kg and ≤ 6590 mg/kg

Question: What about the LD50 (Rattus norvegicus [1]; oral) of the same compound?
Answer: 914 mg/kg

Question: And the LD50 (Rattus norvegicus [1]; oral, gavage, Sprague-Dawley)?
Answer: 958 mg/kg and ≥ 856 mg/kg and ≤ 1080 mg/kg

Question: And the LD0 (Oryctolagus sp. [2])?
Answer: > 2000 mg/kg

Question: Which results are given for FC(F)(Cl)C(F)(F)Cl [1,2-Dichloro-1,1,2,2-tetrafluoroethane]?
Answer: LC50 (Mus musculus [3]): 4.89e+06 mg/m3; LD0 (Rattus norvegicus [4]): > 2250 mg/kg

Question: How did the LOAEL (Gallus sp.) turn out when Clc1cc2oc3cc(Cl)c(Cl)cc3c2cc1Cl [2,3,7,8-Tetrachlorodibenzofuran] was run?
Answer: 1e-05 mg/kg-day

Question: And the NOAEL (Gallus sp.)?
Answer: 1e-06 mg/kg-day

Question: What does the source list for CC(C)C#N [2-Methylpropanenitrile]?
Answer: LD50 (Oryctolagus sp. [5]; occlusive): 239 mg/kg; LC50 (Rattus norvegicus [1]; inhalation, Sprague-Dawley): > 2830 mg/m3; LC50 (Rattus norvegicus [1]; inhalation, albino): ≥ 1410 mg/m3 and ≤ 2830 mg/m3; LD50 (Rattus norvegicus [1]; oral): > 50 mg/kg and ≤ 100 mg/kg; LD50 (Rattus norvegicus [1]; oral, gavage): 77 mg/kg; NOAEL (Rattus norvegicus [1]; reproduction developmental, duration: 6 days, inhalation, F, Sprague-Dawley): 283 mg/m3; LC10 (Rattus norvegicus [6]): 3320 mg/m3

Question: For C=CC=O [Acrolein], which NOEL (Rattus norvegicus [7]; F) is on record?
Answer: < 0.75 mg/kg-day

Question: What about the NOEL (Rattus norvegicus [7]; M) of the same compound?
Answer: 1.25 mg/kg-day

Question: And the NOAEL (Rattus norvegicus [8]; chronic, oral, gavage, reduced survival)?
Answer: 0.05 mg/kg-day

Question: What about the LOAEL (Rattus norvegicus [8]; subchronic, inhalation, nasal lesions) of the same compound?
Answer: 0.9 mg/m3

Question: And the LOAEL (Homo sapiens)?
Answer: 0.688 mg/m3

Question: What about the LOAEL (Rattus norvegicus [9]) of the same compound?
Answer: 0.917 mg/m3

Question: What about the FEL (Rattus norvegicus [10]) of the same compound?
Answer: 0.5 mg/kg-day

Question: Clc1cccc(-c2ccc(Cl)c(Cl)c2Cl)c1Cl [Aroclor 1254] was tested. Which LOAEL (Neovison sp.) did it give?
Answer: 0.69 mg/kg-day

Question: What about the NOAEL (Neovison sp.) of the same compound?
Answer: 0.14 mg/kg-day

Question: What about the LOAEL (Peromyscus polionotus) of the same compound?
Answer: 0.68 mg/kg-day

Question: And the NOAEL (Peromyscus polionotus)?
Answer: 0.068 mg/kg-day

Question: And the LOAEL (Phasianus colchicus)?
Answer: 1.8 mg/kg-day

Question: What about the NOAEL (Phasianus colchicus) of the same compound?
Answer: 0.18 mg/kg-day

Question: What about the LOAEL (Monkey [11]) of the same compound?
Answer: 0.005 mg/kg-day

Question: What about the LOAEL (Monkey [12]) of the same compound?
Answer: 0.005 mg/kg-day

Question: Which results are given for CNC(=O)Oc1cccc2c1OC(C)(C)C2 [Carbofuran]?
Answer: LD50 (Oryctolagus sp. [5]; semiocclusive): < 2000 mg/kg; NOAEL (Oryctolagus sp. [5]; reproduction developmental, oral, gavage, F): ≥ 2 mg/kg-day; LC50 (Rattus norvegicus [1]; inhalation, particle, Sprague-Dawley): 0.05 µg/mL (≈ 0.226 µM); LD50 (Rattus norvegicus [1]; oral, diet, Sprague-Dawley): 5.3 mg/kg and 13.2 mg/kg; LD50 (Rattus norvegicus [1]; oral, gavage, Sprague-Dawley): 7 mg/kg and 8.8 mg/kg and 13.3 mg/kg; NOAEL (Rattus norvegicus [1]; developmental, duration: 14 days, oral, diet, Sprague-Dawley): 160 ppm; NOAEL (Rattus norvegicus [1]; reproduction developmental, duration: 14 days, oral, diet, F, Sprague-Dawley): 20 ppm; NOAEL (Rattus norvegicus [1]; reproduction developmental, oral, diet, Crl:CD(SD)): 20 ppm; LEL (Canidae [13]): 12.5 mg/kg-day; NOEL (Canidae [13]): 0.5 mg/kg-day; NOEL (Rattus norvegicus [14]): 0.3 mg/kg-day; NOEL (Canidae [15]): 0.5 mg/kg-day; LD40 (Rattus norvegicus [16]): 5.6 mg/kg

Question: N#CC(c1ccc(Cl)cc1)c1c(Cl)cc(-n2ncc(=O)[nH]c2=O)cc1Cl (stereo not given) [Diclazuril] was tested. Which LOEL (Mus musculus [17]) did it give?
Answer: 11 mg/kg-day

Question: What about the NOEL (Mus musculus [17]) of the same compound?
Answer: 3 mg/kg-day
